The source of these data is patent publication US9675627B2, “Dosing regimens for treating and/or preventing cerebral amyloidoses” (Amicus Therapeutics, Inc., priority 2014, dated 2017).

What is called Ki is the dissociation constant of the complex between target and ligand, obtained from inhibition or displacement. A higher Ki goes with weaker binding.

The structures appear in SMILES notation.

Data set [1] has as its target T1, β-hex.
T1 construct: other: pH 5; other: pH 7
Nature of the data set: β-hex enzymatic inhibition in fibroblast lysate (4-MU substrate). The format is biochemical, human. From the text:
Enzymatic activity measurements were done in duplicate.

The subject of data set [2] is human skin fibroblasts. The data set can be described thus: Cell viability, tetrazolium-formazan conversion. The format is cell-based. The conditions noted are these: concentrations as high as 1 mM, up to 120 hours. On the procedure: Viability of human fibroblast (CRL2076) and human neuroblastoma (SH-SY5Y) cells was tested after prolonged exposure to varying concentrations of AdDNJ. In a 96-well plate, fibroblasts were incubated in complete media containing increasing concentrations of AdDNJ up to 1 mM for either 72 or 120 hours at 37° C. in a humidified 8% CO2 incubator. Living cells were quantified using a tetrazoliuim-formazan conversion method according to the manufacturer's instructions (Promega Non-Radioactive 96-well Titer assay, TB112). SH-SY5Y cells were tested in the same manner as fibroblasts but plated in collagen-coated plates (Nunc #152036). After 24 hour, 48 hour and 120 hour exposure to AdDNJ, living SH-SY5Y cells were quantified as described above. All dosing concentrations were done in triplicate.

A short description of data set [3]: Single dose pharmacokinetic study (oral gavage), plasma and brain LC-MS/MS. The format is in vivo, C57BL/J6 mice. On the procedure: 5-week-old C57BL/J6 mice (n=5 mice/group, Taconic Farms, Germantown, N.Y.) were administered vehicle (water) or AdDNJ (30, 100 or 300 mg/kg) via oral gavage every day for 14 days. On day 15 mice were euthanized and brain/plasma collected for analysis. For single dose PK studies, 5-week-old C57BL/J6 mice (n=5 mice/group, Taconic Farms, Germantown, N.Y.) received a single 100 mg/kg dose (oral gavage) of AdDNJ and groups euthanized at 0.5, 1, 2, 4, 8, 16, 24 and 48 hours post dose for brain and plasma analysis. Whole brain tissue (10-15 mg) was homogenized in 1 mL of pH 5 lysis buffer for measuring beta-hexosaminidase activity as described above. AdDNJ levels were measured in plasma and brain samples using LC-MS/MS.

The test system of data set [4] is Dutch APP^E693Q transgenic mice. The data set can be described thus: Elevated plus maze (EPM). The format is in vivo. The conditions noted are these: 3-month course, 3, 10, 30 or 100 mg/kg. On the procedure:
(§1) The generation and characterization of Dutch APPE693Q mice transgenic mice is described in Gandy, S., et al. Days to criterion as an indicator of toxicity associated with human Alzheimer amyloid-beta oligomers. Annals of neurology 68, 220-230 (2010). 3-month-old male Dutch APP^E693Q mice transgenic mice were orally gavaged 5 days/week with either vehicle (water) (n=15) or 3, 10, 30 or 100 mg/kg AdDNJ for 3 months (n=13). All animal studies were approved and conducted in accordance with the Institutional Animal Care and Usage Committee. Mice were kept in a pathogen-free environment, on a 12-hour light/dark cycle and given ad libitum access to food and water. At 6 month of age treatment groups, and a 3-month-old untreated baseline group (n=15), were cognitively assessed in the NOR, EPM and FC tests. 48 hours following the final dose mice were perfused with ice-cold 1×PBS. The brain was removed and dissected into two hemispheres. […]
The maze in the configuration of a+ and comprised two open arms (35×5×0 cm) across from each other and perpendicular to two closed arms (35×5×16 cm) with a central neutral zone (Stoelting, Wood Dale, Ill.). […] Each trial was videotaped overhead and scored for amount of time spent in the open and closed arms using ANY-maze (Stoelting, Wood Dale, Ill.). […]

The test system is the same in data set [5]. Nature of the data set: Novel object recognition (NOR). The format is in vivo. The conditions noted are these: 3-month course, higher doses (30 or 100 mg/kg). On the procedure: as §1, with “hemispheres. One half was snap-frozen on dry ice and stored at −80° C. for biochemistry; the other half was post-fixed in 4% paraformaldehyde then sagittally sectioned on a vibratome into 30 μm sections and stored at 4° C. in storage buffer until histological analyses.” for “hemispheres.”
On day 1, the mouse was placed in the NOR arena (20 cm diameter) for 10 min to acclimatize. […] The duration spent exploring the objects was then measured using ANY-maze (Stoelting, Wood Dale, Ill.).

Data set [6] shares this test system. The data set can be described thus: Contextual and cued fear conditioning. The format is in vivo. The conditions noted are these: 3-month course, 3-100 mg/kg. As to the method:
as §1
Contextual and cued fear conditioning was assessed using the ANY-Maze fear conditioning system (Stoelting Co., Wood Dale, Ill., USA) as previously described in Steele, J. W., et al. Early fear memory defects are associated with altered synaptic plasticity and molecular architecture in the TgCRND8 Alzheimer's disease mouse model. […]

Data set [7] concerns Aβ. The data set can be described thus: Aβ immunohistochemistry (mAb 6E10). The format is in vivo, Dutch APP^E693Q transgenic mice. The conditions noted are these: 100 mg/kg, 3 months. On the procedure:
The generation and characterization of Dutch APPE693Q mice transgenic mice is described in Gandy, S., et al. Days to criterion as an indicator of toxicity associated with human Alzheimer amyloid-beta oligomers. Annals of neurology 68, 220-230 (2010). 3-month-old male Dutch APP^E693Q mice transgenic mice were orally gavaged 5 days/week with either vehicle (water) (n=15) or 3, 10, 30 or 100 mg/kg AdDNJ for 3 months (n=13). All animal studies were approved and conducted in accordance with the Institutional Animal Care and Usage Committee. Mice were kept in a pathogen-free environment, on a 12-hour light/dark cycle and given ad libitum access to food and water. At 6 month of age treatment groups, and a 3-month-old untreated baseline group (n=15), were cognitively assessed in the NOR, EPM and FC tests. 48 hours following the final dose mice were perfused with ice-cold 1×PBS. The brain was removed and dissected into two hemispheres. One half was snap-frozen on dry ice and stored at −80° C. for biochemistry; the other half was post-fixed in 4% paraformaldehyde then sagittally sectioned on a vibratome into 30 μm sections and stored at 4° C. in storage buffer until histological analyses.
Aβ was assessed via free-floating immunohistochemistry using mAb 6E10 (1:1000, Covance) as previously described20. GAβ was assessed via free-floating immunohistochemistry using mouse anti-GAβ, clone 4396C (1:100), a gift from Dr. Katsuhiko Yanagisawa as previously described19. Images were captured on an Olympus BX61 upright microscope with an attached Olympus DP71 camera. Integrated density of GAβ staining was measured using Image J (National Institute of Health, Bethesda, Md.).

Molecule `CC(=O)NC1CNC(CO)[C@@H](O)C1O` (stereo partly shown) [AdDNJ, 2-acetamido-1,2-dideoxynojirimycin] came in with a Ki in data set [1] (pH 5) of 253 nM. Also, the Ki in data set [1] (pH 7) was 342 nM. The “effect on cell viability” value in data set [2] is given as “little or no effect on cell viability”. Moreover, in data set [3] (qualitative statement), the bioavailability entry was “good bioavailability”. In data set [3] (single 100 mg/kg dose), the “AdDNJ level reached in brain” value was more than 342 nM. In addition, in data set [3] (single 100 mg/kg oral gavage), the “blood brain barrier penetration” value was “crossed the BBB” and the “time for brain level to drop below Ki for β-hex at pH 5 (253 nM)” value is not above 16 hours. Moreover, in data set [4], the “anxiety in elevated plus maze” value is “reduced anxiety at all doses tested”. The “learning behavior in NOR test” value in data set [5] is “protection from the typical aging-related learning behavior deficits”. Besides, in data set [6], the “contextual or cued fear conditioning” value is “no effect”. For the same molecule, in data set [7], the “Aβ accumulation, CA1 region of the hippocampus” value is listed as “no differences were observed”; the “Aβ accumulation, subiculum” value is recorded as “qualitative region-specific reduction of Aβ accumulation”; the “Aβ accumulation, visual cortex” value was “no differences were observed”.
